Measured values as given in publication PMC8465315, “Molecular Umbrella as a Nanocarrier for Antifungals” (Molecules, 2021).
≈ marks a conversion by molar mass, not a printed value. Entries after “also recorded” stand apart in the source; their conditions may differ. Values belong to the compound of their own block, whether it stands above or below them.

What was measured:
Candida spp. = assay: Antifungal in vitro activity, summary statements over the Candida strains tested; format: cell-based
Protocol: (§1) The antifungal in vitro activity of conjugates 24a–d and 35 was determined by the serial two-fold dilution method, using the 96-well microtiter plates, in two growth media, RPMI-1640 and YNB-AS, against seven yeast species from the Candida genus. The MIC50 and MIC90 values, i.e., concentrations at which cell growth was inhibited in 50% and 90%, respectively, were measured and compared to those of the intact cispentacin. The concentration values presented in Table 1 and Table 2 are expressed in mM units to allow the comparison of the compounds’ effectiveness at the molecular level. For data expressed in μg mL^−1 units, such comparison is not possible, since the molecular masses of conjugates (≈1755–2114 D range) are 14–16-fold higher than that of cispentacin (128.3 D).
(§2) Susceptibility testing was performed in two growth media: (a) RPMI-1640 w/o sodium bicarbonate, with L-glutamine + 2% glucose + 3.45% MOPS, pH adjusted to 7.0; (b) YNB-AS—Yeast Nitrogen Base w/o amino acids (contains ammonium sulfate 5 g L^−1) + 2% glucose. The in vitro growth inhibitory activity of antifungals was quantified by determination of MIC50 and MIC90 values by the serial two-fold dilution method, using the 96-well microtiter plates. Serial dilutions of cispentacin and its conjugates were prepared in the 4–0.015 mM range.
(§3) Conditions of the RPMI-1640-based assay were the same as outlined in the CLSI recommendations except for the end-point readout that was done by spectrophotometric determination of cell density at 660 nm. Turbidity in individual wells was measured with a microplate reader (Victor^3; Perkin Elmer). The 96-well microtiter plates were also used for the determination of in vitro growth inhibitory activity in YNB-AS medium. Individual wells were inoculated with 5 × 10^3 Candida cells mL^−1 from the overnight culture in YPD medium. The plates were incubated at 37 °C for 24 h, and then, turbidity was measured with a microplate reader at 660 nm, as described above for the RPMI-1640-based assay.
(§4) Values of MIC50 and MIC90 were read from the graphs of A660 vs. drug concentration and corresponded to the interpolated values of drug concentration at which A660 was 50% or 10% of that measured for the drug-free control.

pig liver esterase = assay: HPLC-MS analysis of conjugate cleavage, model system with pig liver esterase; format: in vitro ADME; details: pig liver esterase 5 mg mL^−1; conjugate 150 µM; 30 °C; 0, 30, 120 min
Protocol: (§5) Conjugates 24a–d, containing the TML system, were tested for susceptibility to enzymatic cleavage in the model system with pig liver esterase and in cell-free extract prepared from C. albicans cells. Conjugate 35 containing the o-dithiobenzylcarbamoyl linker was tested in the model system with glutathione and in C. albicans cell-free extract.
(§6) Analysis of cleavage of the conjugates was performed in two experimental systems: (A) model system, in the presence of pig liver esterase or glutathione, reduced; (B) in C. albicans cell-free extract.
(§7) Mixtures containing a given conjugate at the initial concentration of 150 µM and pig liver esterase, 5 mg mL^−1 or 10 mM glutathione, reduced, in a total volume of 200 μL were incubated at 30 °C. Samples of 50 μL were collected at zero time, after 30 min, and after 120 min and subjected to HPLC-MS analysis.
(§8) The HPLC-MS system consisted of a liquid chromatograph, a degasser, a binary pomp, an auto-sampler, and a column oven, which was combined with an MS detector with an electrospray source (AJS ESI) and quadrupole analyzer (1260 Infinity II and 6470 Triple Quad LC/MS, Agilent Technologies, Waldbronn, Germany). The ChemStation software was used to control the LC-MS system and for data processing.
(§9) Chromatographic separations were performed on an Eclipse XDB-C18 column (150 mm × 4.6 mm, 5 μm). For the separation, a gradient of mobile phase A (H2O + 0.01% HCOOH) and mobile phase B (100% methanol) was used. The gradient profile was set as follows: 0 min—95% effluent A, 8 min—70% effluent A, 11 min—50% effluent A, 12 min—95% effluent A, 17 min—95% effluent A. The flow rate was 1 mL min^−1, the column temperature was 25 °C, and the injection volume was 20 μL.
(§10) The electrospray source operated in a negative mode. The data were collected in a MS scanning mode (MS2 SCAN) with the range 150–700 (m/z).

[1] = tested on: C. albicans cell-free extract; format: in vitro ADME, Candida albicans; details: conjugate 150 µM, 30 °C, 0, 30, 120 min
Protocol: as §5
C. albicans cells were harvested from the culture in YPD medium in the logarithmic phase of growth and washed with PBS, pH 7.4. Then, cells were suspended in a minimal amount of PBS to an optical density OD660 ≈ 1.5. A sample of 1.5 mL of the cell suspension was put into the Lysing Matrix D, 2 mL tubes containing 1.4 mm ceramic spheres (MP Biomedicals). The tubes were vortexed 5 times for 2 min intervals, with 2 min breaks for cooling in the ice/water bath. Finally, the mixtures were centrifuged (10,000× g, 4 °C, 20 min), and the supernatant was pushed through the syringe filter, 0.22 μm pore size, to remove unbroken cells. The thus-obtained cell-free extract was kept at 4 °C and used no later than 5 h after preparation.
as §6
A given conjugate was dissolved in 4 mL of C. albicans cell-free extract to the initial concentration of 150 µM. Mixtures were incubated at 30 °C. Samples of 1 mL were collected at zero time, after 30 min, and after 120 min. The collected samples were immediately de-proteinized by centrifugation (4 °C, 5000× g, 10 min) in Amicon® Ultra-4 Centrifugal Filter Units, 3 kDa cutoff limit. Samples of 50 μL were collected from the filtrates and subjected to HPLC-MS analysis.
as §8, §9, §10

[2] = HPLC-MS analysis of conjugate cleavage, model system with glutathione; format: in vitro ADME; details: reduced, conjugate 150 µM, 30 °C, 0, 30, 120 min
Protocol: as §5, §6, §7, §8
Chromatographic separations were performed on an Eclipse XDB-C18 column (150 mm × 4.6 mm, 5 μm). […]

C. albicans ATCC 10231 [3] = assay: Antifungal in vitro activity, serial two-fold dilution, RPMI-1640 medium; format: cell-based; details: Candida albicans, ATCC10231, >>1 = no growth inhibition at 1 mM
Protocol: as §1, with “For data expressed in μg mL^−1 units, such comparison is not possible, since the molecular masses of conjugates (≈1755–2114 D range) are 14–16-fold higher than that of cispentacin (128.3 D).” left out
as §2, with “Serial dilutions of cispentacin and its conjugates were prepared in the 4–0.015 mM range.” left out
(§11) Conditions of the RPMI-1640-based assay were the same as outlined in the CLSI recommendations except for the end-point readout that was done by spectrophotometric determination of cell density at 660 nm. Turbidity in individual wells was measured with a microplate reader (Victor^3; Perkin Elmer). […]

C. albicans B3 [4] = assay: as above; format: cell-based; details: Candida albicans, C. albicans B3 (fluconazole-sensitive isolate)
Protocol: as §1
(§12) The reference strains used in this study were Candida albicans ATCC 10231, Candida glabrata DSM 11226, and Candida krusei DSM 6128. C. albicans B3, B4, Gu4, and Gu5 clinical isolates were kindly provided by Joachim Morschhäuser, Würzburg, Germany. Gu4 and B3 are fluconazole-sensitive isolates obtained from early infection episodes, while Gu5 and B4 are the corresponding fluconazole-resistant isolates obtained from later episodes in the same patients treated with fluconazole. Strains were grown at 30 °C in YPD medium (2% glucose, 1% yeast extract, and 1% Bacto-Peptone) and stored on YPD agar plates containing 2% agar.
as §2, §3, §4

C. albicans B4 [5] = assay: as above; format: cell-based; details: Candida albicans, C. albicans B4 (fluconazole-resistant isolate)
Protocol: as §1, §12, §2, §3, §4

C. albicans Gu4 [6] = assay: as above; format: cell-based; details: Candida albicans, C. albicans Gu4 (fluconazole-sensitive isolate)
Protocol: as §1, §12, §2, §3, §4

C. albicans Gu5 [7] = assay: as above; format: cell-based; details: Candida albicans, C. albicans Gu5 (fluconazole-resistant isolate)
Protocol: as §1, §12, §2, §3, §4

[8] = tested on: Candida glabrata DSM 11226; assay: as above; format: cell-based; details: Nakaseomyces glabratus, DSM11226, C. glabrata
Protocol: as §1, §12, §2, §3, §4

Candida krusei DSM 6128 [9] = assay: as above; format: cell-based; details: Pichia kudriavzevii, DSM6128, C. krusei
Protocol: as §1, §12, §2, §3, §4

C. albicans ATCC 10231 [10] = assay: Antifungal in vitro activity, serial two-fold dilution, YNB-AS medium; format: cell-based; details: Candida albicans, ATCC10231, >>1 = no growth inhibition at 1 mM
Protocol: as §1, with “For data expressed in μg mL^−1 units, such comparison is not possible, since the molecular masses of conjugates (≈1755–2114 D range) are 14–16-fold higher than that of cispentacin (128.3 D).” left out
as §2, with “Serial dilutions of cispentacin and its conjugates were prepared in the 4–0.015 mM range.” left out
as §11

C. albicans B3 [11] = assay: as above; format: cell-based; details: Candida albicans, C. albicans B3 (fluconazole-sensitive isolate)
Protocol: as §1, §12, §2, §3, §4

C. albicans B4 [12] = assay: as above; format: cell-based; details: Candida albicans, C. albicans B4 (fluconazole-resistant isolate)
Protocol: as §1, §12, §2, §3, §4

C. albicans Gu4 [13] = assay: as above; format: cell-based; details: Candida albicans, C. albicans Gu4 (fluconazole-sensitive isolate)
Protocol: as §1, §12, §2, §3, §4

C. albicans Gu5 [14] = assay: as above; format: cell-based; details: Candida albicans, C. albicans Gu5 (fluconazole-resistant isolate)
Protocol: as §1, §12, §2, §3, §4

[15] = tested on: Candida glabrata DSM 11226; assay: as above; format: cell-based; details: Nakaseomyces glabratus, DSM11226, C. glabrata
Protocol: as §1, §12, §2, §3, §4

Candida krusei DSM 6128 [16] = assay: as above; format: cell-based; details: Pichia kudriavzevii, DSM6128, C. krusei
Protocol: as §1, §12, §2, §3, §4

SMILES: Cc1cc(C)c(C(C)(C)CC(=O)N[C@H]2CCC[C@H]2C(=O)O)c(OC(=O)CCC(=O)N(CCCCNC(=O)CC[C@@H](C)[C@H]2CC[C@H]3[C@@H]4[C@H](OS(=O)(=O)O)C[C@@H]5C[C@H](OS(=O)(=O)O)CC[C@]5(C)[C@H]4C[C@H](OS(=O)(=O)O)[C@]23C)CCCNC(=O)CC[C@@H](C)[C@H]2CC[C@H]3[C@@H]4[C@H](OS(=O)(=O)O)C[C@@H]5C[C@H](OS(=O)(=O)O)CC[C@]5(C)[C@H]4C[C@H](OS(=O)(=O)O)[C@]23C)c1 [24b]
antifungal activity (Candida spp.; RPMI-1640 medium): devoid of antifungal activity
cleavage / release of cispentacin (HPLC-MS) (pig liver esterase): resistant to enzymatic cleavage
cleavage / release of cispentacin or its derivative (HPLC-MS) [1]: Neither cispentacin nor the m/z 145.1/145.2 compound was found

SMILES: C[C@H](CCC(=O)NCCCCN(CCCNC(=O)CC[C@@H](C)[C@H]1CC[C@H]2[C@@H]3[C@H](OS(=O)(=O)O)C[C@@H]4C[C@H](OS(=O)(=O)O)CC[C@]4(C)[C@H]3C[C@H](OS(=O)(=O)O)[C@]12C)C(=O)CCSSc1ccccc1COC(=O)N[C@H]1CCC[C@H]1C(=O)O)[C@H]1CC[C@H]2[C@@H]3[C@H](OS(=O)(=O)O)C[C@@H]4C[C@H](OS(=O)(=O)O)CC[C@]4(C)[C@H]3C[C@H](OS(=O)(=O)O)[C@]12C [compound 35]
antifungal activity (Candida spp.; RPMI-1640 medium): devoid of antifungal activity
antifungal activity (Candida spp.; both growth media (RPMI-1640 and YNB-AS)): inactive in both media
cleavage / release of cispentacin (HPLC-MS) [2]: found in the chromatogram of post-reaction mixture; also recorded: cleavage was observed
cleavage / release of cispentacin or its derivative (HPLC-MS) [1]: Neither cispentacin nor the m/z 145.1/145.2 compound was found

MIC50 (C. albicans ATCC 10231 [3]): 80 µM (≈ 10.3 µg/mL)
MIC90 (C. albicans ATCC 10231 [3]): 340 µM (≈ 43.9 µg/mL)
MIC50 (C. albicans B3 [4]): 210 µM (≈ 27.1 µg/mL)
MIC90 (C. albicans B3 [4]): 360 µM (≈ 46.5 µg/mL)
MIC50 (C. albicans B4 [5]): 340 µM (≈ 43.9 µg/mL)
MIC90 (C. albicans B4 [5]): 580 µM (≈ 74.9 µg/mL)
MIC50 (C. albicans Gu4 [6]): 260 µM (≈ 33.6 µg/mL)
MIC90 (C. albicans Gu4 [6]): 420 µM (≈ 54.2 µg/mL)
MIC50 (C. albicans Gu5 [7]): 410 µM (≈ 53 µg/mL)
MIC90 (C. albicans Gu5 [7]): 640 µM (≈ 82.7 µg/mL)
MIC50 [8]: 510 µM (≈ 65.9 µg/mL)
MIC90 [8]: > 1000 µM
MIC50 (Candida krusei DSM 6128 [9]): 280 µM (≈ 36.2 µg/mL)
MIC90 (Candida krusei DSM 6128 [9]): 570 µM (≈ 73.6 µg/mL)
MIC50 (C. albicans ATCC 10231 [10]): 20 µM (≈ 2.58 µg/mL)
MIC90 (C. albicans ATCC 10231 [10]): 100 µM (≈ 12.9 µg/mL)
MIC50 (C. albicans B3 [11]): 110 µM (≈ 14.2 µg/mL)
MIC90 (C. albicans B3 [11]): 150 µM (≈ 19.4 µg/mL)
MIC50 (C. albicans B4 [12]): 170 µM (≈ 22 µg/mL)
MIC90 (C. albicans B4 [12]): 280 µM (≈ 36.2 µg/mL)
MIC50 (C. albicans Gu4 [13]): 150 µM (≈ 19.4 µg/mL)
MIC90 (C. albicans Gu4 [13]): 180 µM (≈ 23.2 µg/mL)
MIC50 (C. albicans Gu5 [14]): 270 µM (≈ 34.9 µg/mL)
MIC90 (C. albicans Gu5 [14]): 390 µM (≈ 50.4 µg/mL)
MIC50 [15]: 100 µM (≈ 12.9 µg/mL)
MIC90 [15]: 500 µM (≈ 64.6 µg/mL)
MIC50 (Candida krusei DSM 6128 [16]): 90 µM (≈ 11.6 µg/mL)
MIC90 (Candida krusei DSM 6128 [16]): 150 µM (≈ 19.4 µg/mL)
SMILES: N[C@H]1CCC[C@H]1C(=O)O [CisP, cispentacin]
